Values joined by “and” are separate entries in the source; they are usually repeats but may differ in a detail not shown here. Equal entries are not always repeated.
Assays:
M5076 = experiment: Percent increase in life span after transplant tumor in M5076 reticulum cells; format: functional, Mus musculus
B16 [1] = experiment: In vitro cytotoxicity against murine B16 melanoma cells; format: functional, cell-based, Mus musculus
[2] = Percent increase in life span after transplant tumor in Madison lung carcinoma cells; format: functional, Mus musculus, M109
ADJ/PC6 = experiment: Tumor growth inhibition activity after subcutaneous transplanted tumor in ADJ-PC6 plasmacytoma cells; format: functional, Mus musculus
B16 [3] = experiment: Percent increase in life span after transplant tumor in B16 melanoma cells; format: functional, Mus musculus
[4] = Tumor growth inhibition activity after subcutaneous transplanted tumor in mammary carcinoma 16/C cells; format: functional, Mus musculus
P388 [5] = experiment: Percent increase in life span after transplant tumor in p388 leukemia cells; format: functional, Mus musculus
Mus musculus [6] = experiment: Maximally tolerated dose was measured after ip administration of compound, 24 hr after tumor implantation.; format: functional
[7] = system: Lewis lung carcinoma cell line; experiment: Percent increase in life span after transplant tumor in Lewis lung carcinoma cells; format: functional, Mus musculus
P388 [8] = experiment: Maximum increase in life span was determined against P388 leukemia at 4-5 doses of compound; format: functional, Mus musculus
L1210 = experiment: Percent increase in life span after transplant tumor in L1210 leukemia; format: functional, Mus musculus
Mus musculus [9] = species: Mus musculus

c1ccc(P(CCP(c2ccccc2)c2ccccc2)c2ccccc2)cc1
ILS (M5076): 74%
IC50 (B16 [1]; Mus musculus, B16): 50 µM
IC50 (B16 [1]; b16): 60 µM
ILS [2]: 50%
TGI (ADJ/PC6): 94%
ILS (B16 [3]): 38%
TGI [4]: 88%
ILS (P388 [5]): 107%
MTD (Mus musculus [6]): 60 µM/kg and 50 µM/kg
ILS [7]: 69%
ILSmax (P388 [8]): 80 and 107
ILS (L1210): 56%

c1ccc(P(CC[As](c2ccccc2)c2ccccc2)c2ccccc2)cc1
IC50 (B16 [1]; Mus musculus, B16): 55 µM
MTD (Mus musculus [6]): 89 µM/kg

c1ccc(P(CCP(CCP(c2ccccc2)c2ccccc2)CCP(c2ccccc2)c2ccccc2)c2ccccc2)cc1
IC50 (B16 [1]; Mus musculus, B16): 58 µM
MTD (Mus musculus [6]): 95 µM/kg
ILSmax (P388 [8]): 35

C(=C\P(c1ccccc1)c1ccccc1)/P(c1ccccc1)c1ccccc1
IC50 (B16 [1]; Mus musculus, B16): 40 µM
MTD (Mus musculus [6]): 320 µM/kg

O=P(CCP(=O)(c1ccccc1)c1ccccc1)(c1ccccc1)c1ccccc1
IC50 (B16 [1]; Mus musculus, B16): > 100 µM
MTD (Mus musculus [6]): 300 µM/kg

COc1ccc(P(CCP(c2ccc(OC)cc2)c2ccc(OC)cc2)c2ccc(OC)cc2)cc1
IC50 (B16 [1]; Mus musculus, B16): 66 µM
MTD (Mus musculus [6]): 62 µM/kg

4,4'-Bis-diphenylphosphanyl-biphenyl; compound with GENERIC INORGANIC NEUTRAL COMPONENT
MTD (Mus musculus [9]): 35 µM/kg and 24 µM/kg and 30 µM/kg

CC(C(C)P(c1ccccc1)c1ccccc1)P(c1ccccc1)c1ccccc1 (stereo not given)
IC50 (B16 [1]; Mus musculus, B16): 50 µM
MTD (Mus musculus [6]): 113 µM/kg
ILSmax (P388 [8]): 73

Cc1ccc(P(CCP(c2ccc(C)cc2)c2ccc(C)cc2)c2ccc(C)cc2)cc1
IC50 (B16 [1]; Mus musculus, B16): > 100 µM
MTD (Mus musculus [6]): 26 µM/kg

Fc1ccccc1P(CCP(c1ccccc1F)c1ccccc1F)c1ccccc1F
IC50 (B16 [1]; Mus musculus, B16): > 100 µM
MTD (Mus musculus [6]): 68 µM/kg
ILSmax (P388 [8]): 45

Fc1ccc(P(CCP(c2ccc(F)cc2)c2ccc(F)cc2)c2ccc(F)cc2)cc1
IC50 (B16 [1]; Mus musculus, B16): > 100 µM
MTD (Mus musculus [6]): 17 µM/kg
ILSmax (P388 [8]): 60

c1ccc(P(CCP(c2ccccn2)c2ccccn2)c2ccccn2)nc1
IC50 (B16 [1]; Mus musculus, B16): > 100 µM
MTD (Mus musculus [6]): 60 µM/kg

c1ccc(P(CCCCCCP(c2ccccc2)c2ccccc2)c2ccccc2)cc1
IC50 (B16 [1]; Mus musculus, B16): > 100 µM
MTD (Mus musculus [6]): 280 µM/kg

COc1ccccc1P(CCP(c1ccccc1OC)c1ccccc1OC)c1ccccc1OC
MTD (Mus musculus [6]): 120 µM/kg

C(=C/P(c1ccccc1)c1ccccc1)/P(c1ccccc1)c1ccccc1
IC50 (B16 [1]; Mus musculus, B16): 25 µM
MTD (Mus musculus [6]): 61 µM/kg
ILSmax (P388 [8]): 60

c1csc(P(CCP(c2cccs2)c2cccs2)c2cccs2)c1
IC50 (B16 [1]; Mus musculus, B16): > 100 µM
MTD (Mus musculus [6]): 38 µM/kg
ILSmax (P388 [8]): 60

c1ccc(P(CCP(c2ccccc2)c2ccccc2)CCP(c2ccccc2)c2ccccc2)cc1
IC50 (B16 [1]; Mus musculus, B16): > 100 µM
MTD (Mus musculus [6]): 60 µM/kg
ILSmax (P388 [8]): 80

c1ccc(P(CCCP(c2ccccc2)c2ccccc2)c2ccccc2)cc1
IC50 (B16 [1]; Mus musculus, B16): 72 µM
MTD (Mus musculus [6]): 78 µM/kg
ILSmax (P388 [8]): 75

C1CCC(P(CCP(C2CCCCC2)C2CCCCC2)C2CCCCC2)CC1
IC50 (B16 [1]; Mus musculus, B16): > 100 µM
MTD (Mus musculus [6]): 76 µM/kg
ILSmax (P388 [8]): 68

c1ccc(P(c2ccccc2)c2ccc(P(c3ccccc3)c3ccccc3)cc2)cc1
IC50 (B16 [1]; Mus musculus, B16): > 100 µM
MTD (Mus musculus [6]): >600 µM/kg

FC(F)(F)c1ccc(P(CCP(c2ccc(C(F)(F)F)cc2)c2ccc(C(F)(F)F)cc2)c2ccc(C(F)(F)F)cc2)cc1
MTD (Mus musculus [6]): 48 µM/kg
ILSmax (P388 [8]): 38

CSc1ccccc1P(CCP(c1ccccc1SC)c1ccccc1SC)c1ccccc1SC
MTD (Mus musculus [6]): 110 µM/kg
ILSmax (P388 [8]): 51

c1ccc([As](CC[As](c2ccccc2)c2ccccc2)c2ccccc2)cc1
IC50 (B16 [1]; Mus musculus, B16): > 100 µM
MTD (Mus musculus [6]): 82 µM/kg

c1cc(P(CCP(c2ccncc2)c2ccncc2)c2ccncc2)ccn1
MTD (Mus musculus [6]): 80 µM/kg
ILSmax (P388 [8]): 35

CSc1ccc(P(CCP(c2ccc(SC)cc2)c2ccc(SC)cc2)c2ccc(SC)cc2)cc1
MTD (Mus musculus [6]): 55 µM/kg
ILSmax (P388 [8]): 58

CN(C)c1ccc(P(CCP(c2ccc(N(C)C)cc2)c2ccc(N(C)C)cc2)c2ccc(N(C)C)cc2)cc1
MTD (Mus musculus [6]): >220 µM/kg

CCP(CCP(CC)c1ccccc1)c1ccccc1 (stereo not given)
IC50 (B16 [1]; Mus musculus, B16): > 100 µM
MTD (Mus musculus [6]): >300 µM/kg

c1ccc(SCCSc2ccccc2)cc1
IC50 (B16 [1]; Mus musculus, B16): > 100 µM
MTD (Mus musculus [6]): 1000 µM/kg

c1ccc(CP(CCP(Cc2ccccc2)Cc2ccccc2)Cc2ccccc2)cc1
IC50 (B16 [1]; Mus musculus, B16): > 100 µM
MTD (Mus musculus [6]): 44 µM/kg

CCP(CC)CCP(CC)CC
IC50 (B16 [1]; Mus musculus, B16): > 100 µM
MTD (Mus musculus [6]): 310 µM/kg

O=[N+]([O-])[O][Ag].O=[N+]([O-])[O][Ag].c1ccc(P(CCP(c2ccccc2)c2ccccc2)c2ccccc2)cc1
MTD (Mus musculus [6]): 8 µM/kg

c1ccc(P(c2ccccc2)P(c2ccccc2)c2ccccc2)cc1
IC50 (B16 [1]; Mus musculus, B16): > 100 µM
MTD (Mus musculus [6]): 320 µM/kg

Cc1cccc(P(CCP(c2cccc(C)c2)c2cccc(C)c2)c2cccc(C)c2)c1
IC50 (B16 [1]; Mus musculus, B16): > 100 µM
MTD (Mus musculus [6]): 70 µM/kg

C(#CP(c1ccccc1)c1ccccc1)P(c1ccccc1)c1ccccc1
IC50 (B16 [1]; Mus musculus, B16): 23 µM
MTD (Mus musculus [6]): >300 µM/kg

c1ccc(P(CCCCP(c2ccccc2)c2ccccc2)c2ccccc2)cc1
IC50 (B16 [1]; Mus musculus, B16): > 100 µM
MTD (Mus musculus [6]): 66 µM/kg
ILSmax (P388 [8]): 45

c1coc(P(CCP(c2ccco2)c2ccco2)c2ccco2)c1
IC50 (B16 [1]; Mus musculus, B16): > 100 µM
MTD (Mus musculus [6]): 180 µM/kg
ILSmax (P388 [8]): 60

CC(CP(c1ccccc1)c1ccccc1)P(c1ccccc1)c1ccccc1 (stereo not given)
IC50 (B16 [1]; Mus musculus, B16): 50 µM
MTD (Mus musculus [6]): 78 µM/kg
ILSmax (P388 [8]): 86

c1ccc(P(CCCCCP(c2ccccc2)c2ccccc2)c2ccccc2)cc1
IC50 (B16 [1]; Mus musculus, B16): > 100 µM
MTD (Mus musculus [6]): 18 µM/kg
ILSmax (P388 [8]): 50

Source: ChEMBL document CHEMBL1123558, “Antitumor activity of bis(diphenylphosphino)alkanes, their gold(I) coordination complexes, and related compounds” (J Med Chem, 1987)
